ChEMBL document CHEMBL1130030, “Tyrosine kinase inhibitors. 11. Soluble analogues of pyrrolo- and pyrazoloquinazolines as epidermal growth factor receptor inhibitors: synthesis, biological evaluation, and modeling of the mode of binding” (J Med Chem, 1997)

Columns and labels:
[1] = molecular target: T1, Epidermal growth factor receptor (Homo sapiens, UniProt P00533); assay: Inhibition of autophosphorylation of epidermal growth factor receptor prepared from human A431 carcinoma cells.
[2] = molecular target: T1, Epidermal growth factor receptor; assay: Inhibition of the phosphorylation of a random polyglutamic acid/tyrosine copolymer by human epidermal growth factor receptor(EGFR) prepared from human A431 carcinoma cells

T1 sequence (P00533 whole entry): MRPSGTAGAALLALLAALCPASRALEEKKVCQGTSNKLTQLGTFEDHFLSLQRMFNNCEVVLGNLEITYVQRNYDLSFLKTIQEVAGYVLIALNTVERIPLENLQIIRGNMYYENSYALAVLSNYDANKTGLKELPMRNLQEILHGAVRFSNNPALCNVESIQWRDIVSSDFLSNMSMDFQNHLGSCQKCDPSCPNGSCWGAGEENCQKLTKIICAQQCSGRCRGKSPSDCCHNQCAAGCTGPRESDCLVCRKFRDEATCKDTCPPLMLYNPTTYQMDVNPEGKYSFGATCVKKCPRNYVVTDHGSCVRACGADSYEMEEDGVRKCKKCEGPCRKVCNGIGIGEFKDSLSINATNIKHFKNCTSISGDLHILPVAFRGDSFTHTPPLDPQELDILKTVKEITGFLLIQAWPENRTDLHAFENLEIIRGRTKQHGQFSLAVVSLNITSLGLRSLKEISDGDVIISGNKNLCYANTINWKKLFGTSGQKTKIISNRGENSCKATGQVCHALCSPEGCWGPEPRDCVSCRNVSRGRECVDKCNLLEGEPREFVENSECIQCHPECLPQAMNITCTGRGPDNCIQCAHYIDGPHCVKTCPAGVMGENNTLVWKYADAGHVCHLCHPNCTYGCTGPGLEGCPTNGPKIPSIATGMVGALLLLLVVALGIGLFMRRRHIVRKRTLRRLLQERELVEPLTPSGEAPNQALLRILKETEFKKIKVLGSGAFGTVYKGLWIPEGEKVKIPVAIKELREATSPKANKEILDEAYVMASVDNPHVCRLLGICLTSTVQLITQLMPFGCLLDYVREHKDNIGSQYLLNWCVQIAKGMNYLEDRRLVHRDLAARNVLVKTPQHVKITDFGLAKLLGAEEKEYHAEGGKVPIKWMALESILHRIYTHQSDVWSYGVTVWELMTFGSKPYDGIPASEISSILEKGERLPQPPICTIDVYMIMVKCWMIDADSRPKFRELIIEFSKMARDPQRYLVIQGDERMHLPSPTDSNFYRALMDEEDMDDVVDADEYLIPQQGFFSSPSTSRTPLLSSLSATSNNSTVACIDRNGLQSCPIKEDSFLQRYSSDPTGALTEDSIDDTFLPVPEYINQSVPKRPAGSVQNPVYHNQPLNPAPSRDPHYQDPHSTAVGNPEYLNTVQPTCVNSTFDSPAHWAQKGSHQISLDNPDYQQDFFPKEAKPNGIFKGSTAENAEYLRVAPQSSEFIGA

IC50 [1] [nM]	IC50 [2] [nM]	SMILES
49	1.6	OCC(O)Cn1ccc2cc3c(Nc4cccc(Br)c4)ncnc3cc21 (configuration not stated)
9.6	3.4	COC(=O)CN(C)Cc1c[nH]c2cc3ncnc(Nc4cccc(Br)c4)c3cc12
145	41	CN(C)CCn1ccc2cc3c(Nc4cccc(Br)c4)ncnc3cc21
16	3.7	Brc1cccc(Nc2ncnc3cc4c(ccn4CCN4CCOCC4)cc23)c1
1780	5.1	O=C(O)Cn1ccc2cc3c(Nc4cccc(Br)c4)ncnc3cc21
81	7.5	CN(C)CCN(C)Cc1c[nH]c2cc3ncnc(Nc4cccc(Br)c4)c3cc12
20		Brc1cccc(Nc2ncnc3cc4[nH]ncc4cc23)c1
	> 10000	COc1cccc2c(Nc3cccc(Br)c3)ncnc12
318	12	OCC(O)Cn1ncc2cc3c(Nc4cccc(Br)c4)ncnc3cc21 (configuration not stated)
	> 100000	Brc1cccc(Nc2nccc3ccccc23)c1
13	0.37	Cn1ncc2cc3c(Nc4cccc(Br)c4)ncnc3cc21
230	21	CN(C)CCCn1ccc2cc3c(Nc4cccc(Br)c4)ncnc3cc21
9.7	2.6	CN(C)Cc1c[nH]c2cc3ncnc(Nc4cccc(Br)c4)c3cc12
135	3.5	OCCN(CCO)Cc1c[nH]c2cc3ncnc(Nc4cccc(Br)c4)c3cc12
262	40	CN(C)CCn1ncc2cc3c(Nc4cccc(Br)c4)ncnc3cc21
	> 10000	Cc1nc(Nc2cccc(Br)c2)c2ccccc2n1
584	0.72	CN(CC(=O)O)Cc1c[nH]c2cc3ncnc(Nc4cccc(Br)c4)c3cc12
22	0.8	Cn1ccc2cc3c(Nc4cccc(Br)c4)ncnc3cc21

SMILES	IC50 [1] [nM]	IC50 [2] [nM]
Brc1cccc(Nc2ncnc3cc4[nH]cc(CN5CCOCC5)c4cc23)c1	9.6	4.8
Brc1cccc(Nc2ncnc3cc4[nH]ccc4cc23)c1	22	
Brc1cccc(Nc2ncnc3cc4c(cnn4CCCN4CCOCC4)cc23)c1	77	8.8
